Marks after values point to notes of the source that are not given here.

Series [1] addresses RANKL (receptor activator of NF-kappaB ligand). The experiment in a line: cell-based or functional assay.
Series [2] deals with MDA-MB-468 human breast cancer cells. The experiment in a line: murine bone lytic model of human breast cancer (intratibial inoculation). The following applies: 0.1 mg/kg, i.v.; for Mean X-Ray Score of Bone Lysis in Inoculated Tibiae: scale 0 (no lysis) to 4, enlarged muscle + 0.5.
Series [3] shares this test system. The following applies: mouse, in vivo.
The mark [4] stands for this setting: MicroCT scan of inoculated tibia at termination, mean.

As to “hOPG-hIgG1-Fc polypeptide of SEQ ID NO. 1 (Fc fusion)”, in series [1], the concentration that completely blocks RANKL-induced osteoclast differentiation (RAW264.7 cells) amounted to 100 ng/mL and the inhibition of RANKL-induced osteoclast differentiation (RAW264.7 cells), EC50 came out at 0.05 µg/mL.

Turning to `O=P(O)(O)C(O)(Cn1ccnc1)P(=O)(O)O` [Zometa, Zoledronic Acid], in series [2] (3 times weekly for 6 weeks, end of study), the “Survival (Number Alive/Total)” value is on record as 12/12. For the same compound, the “Mean X-Ray Score of Bone Lysis in Inoculated Tibiae” value in series [2] (6 weeks Post-Inoculation) was 0.2 ^a. Further, in series [2] (8 weeks Post-Inoculation), the “Mean X-Ray Score of Bone Lysis in Inoculated Tibiae” value is recorded as 0.5 ^a. In series [2] (setting [4]), the “Structure Model Index (SMI)” value is given as 1.831 ^a, the “Total Bone Volume (TBV)” value is on record as 6.799 ^a mm^3, the “Trabecular Bone Volume 3 (Tb.BV)” value is reported as 0.614 ^a mm^3 and the “Trabecular Pattern Factor (Tb.Pf)” value was 10.458 ^a mm^--1. Besides, the adverse clinical signs entry in series [3] was “No adverse clinical signs were observed”.

Values taken from patent EP2874643B1, “OSTEOPROTEGERIN DERIVED COMPOSITION AND USE THEREOF” (R-Pharm International, LLC, priority 2012, dated 2013).
